Experimental data as given in ChEMBL document CHEMBL4673219, “Novel 5,6-disubstituted pyrrolo[2,3-d]pyrimidine derivatives as broad spectrum antiproliferative agents: Synthesis, cell based assays, kinase profile and molecular docking study” (Bioorg Med Chem, 2018).
Several values for one entry are separate records, joined by “and”; a condition that tells them apart may be missing. Equal entries are not always repeated.

Assays:
UACC-257 [1] = assay: Growth inhibition of human UACC-257 cells assessed as growth percentage at 0.01 uM incubated for 48 hrs by sulforhodamine B assay relative to control; format: functional; details: read-out: Activity
UACC-257 [2] = assay: Growth inhibition of human UACC-257 cells assessed as growth percentage at 10 uM incubated for 48 hrs by sulforhodamine B assay relative to control; format: functional; details: read-out: Activity
HOP-92 [3] = assay: Growth inhibition of human HOP-92 cells assessed as growth percentage at 0.1 uM incubated for 48 hrs by sulforhodamine B assay relative to control; format: functional; details: read-out: Activity
SK-MEL-2 = assay: Growth inhibition of human SK-MEL-2 cells assessed as growth percentage at 10 uM incubated for 48 hrs by sulforhodamine B assay relative to control; format: functional; details: read-out: Activity
HCT-15 = assay: Growth inhibition of human HCT-15 cells assessed as growth percentage at 0.1 uM incubated for 48 hrs by sulforhodamine B assay relative to control; format: functional; details: read-out: Activity
SNB-75 [4] = assay: Growth inhibition of human SNB-75 cells incubated for 48 hrs by sulforhodamine B assay; format: functional
NCI-H226 = assay: Growth inhibition of human NCI-H226 cells incubated for 48 hrs by sulforhodamine B assay; format: functional; details: for TGI: NCI-H226; for CC50: read-out: LC50 (the source's name)
HOP-92 [5] = assay: Growth inhibition of human HOP-92 cells incubated for 48 hrs by sulforhodamine B assay; format: functional
COLO 205 [6] = assay: Growth inhibition of human COLO 205 cells incubated for 48 hrs by sulforhodamine B assay; format: functional
CCRF-CEM [7] = assay: Growth inhibition of human CCRF-CEM cells assessed as growth percentage at 1 uM incubated for 48 hrs by sulforhodamine B assay relative to control; format: functional; details: read-out: Activity
HOP-92 [8] = assay: Growth inhibition of human HOP-92 cells assessed as growth percentage at 1 uM incubated for 48 hrs by sulforhodamine B assay relative to control; format: functional; details: read-out: Activity
CAKI-1 = assay: Growth inhibition of human CAKI-1 cells assessed as growth percentage at 0.01 uM incubated for 48 hrs by sulforhodamine B assay relative to control; format: functional; details: read-out: Activity
U-251 [9] = assay: Growth inhibition of human U-251 cells assessed as growth percentage at 10 uM incubated for 48 hrs by sulforhodamine B assay relative to control; format: functional; details: read-out: Activity
BT-549 = assay: Growth inhibition of human BT-549 cells assessed as growth percentage at 1 uM incubated for 48 hrs by sulforhodamine B assay relative to control; format: functional; details: read-out: Activity
COLO 205 [10] = assay: Growth inhibition of human COLO 205 cells assessed as growth percentage at 0.01 uM incubated for 48 hrs by sulforhodamine B assay relative to control; format: functional; details: read-out: Activity
CCRF-CEM [11] = assay: Growth inhibition of human CCRF-CEM cells assessed as growth percentage at 0.1 uM incubated for 48 hrs by sulforhodamine B assay relative to control; format: functional; details: read-out: Activity
HOP-62 = assay: Growth inhibition of human HOP-62 cells assessed as growth percentage at 1 uM incubated for 48 hrs by sulforhodamine B assay relative to control; format: functional; details: read-out: Activity
OVCAR-4 = assay: Growth inhibition of human OVCAR-4 cells assessed as growth percentage at 0.01 uM incubated for 48 hrs by sulforhodamine B assay relative to control; format: functional; details: read-out: Activity
SK-MEL-5 = assay: Growth inhibition of human SK-MEL-5 cells assessed as growth percentage at 100 uM incubated for 48 hrs by sulforhodamine B assay relative to control; format: functional; details: read-out: Activity
SR = assay: Growth inhibition of human SR cells assessed as growth percentage at 100 uM incubated for 48 hrs by sulforhodamine B assay relative to control; format: functional; details: read-out: Activity
SF-268 [12] = assay: Growth inhibition of human SF-268 cells assessed as growth percentage at 0.01 uM incubated for 48 hrs by sulforhodamine B assay relative to control; format: functional; details: read-out: Activity
K562 = assay: Growth inhibition of human K562 cells assessed as growth percentage at 1 uM incubated for 48 hrs by sulforhodamine B assay relative to control; format: functional; details: read-out: Activity
HOP-92 [13] = assay: Growth inhibition of human HOP-92 cells assessed as growth percentage at 100 uM incubated for 48 hrs by sulforhodamine B assay relative to control; format: functional; details: read-out: Activity
RXF 393 [14] = assay: Growth inhibition of human RXF 393 cells incubated for 48 hrs by sulforhodamine B assay; format: functional
CCRF-CEM [15] = assay: Growth inhibition of human CCRF-CEM cells assessed as growth percentage at 100 uM incubated for 48 hrs by sulforhodamine B assay relative to control; format: functional; details: read-out: Activity
SNB-75 [16] = assay: Growth inhibition of human SNB-75 cells assessed as growth percentage at 1 uM incubated for 48 hrs by sulforhodamine B assay relative to control; format: functional; details: read-out: Activity
COLO 205 [17] = assay: Growth inhibition of human COLO 205 cells assessed as growth percentage at 1 uM incubated for 48 hrs by sulforhodamine B assay relative to control; format: functional; details: read-out: Activity
SK-OV-3 = assay: Growth inhibition of human SK-OV-3 cells assessed as growth percentage at 0.01 uM incubated for 48 hrs by sulforhodamine B assay relative to control; format: functional; details: read-out: Activity
TK-10 = assay: Growth inhibition of human TK-10 cells assessed as growth percentage at 10 uM incubated for 48 hrs by sulforhodamine B assay relative to control; format: functional; details: read-out: Activity
SN12C = assay: Growth inhibition of human SN12C cells assessed as growth percentage at 0.1 uM incubated for 48 hrs by sulforhodamine B assay relative to control; format: functional; details: read-out: Activity
HOP-92 [18] = assay: Growth inhibition of human HOP-92 cells assessed as growth percentage at 0.01 uM incubated for 48 hrs by sulforhodamine B assay relative to control; format: functional; details: read-out: Activity
RXF 393 [19] = assay: Growth inhibition of human RXF 393 cells assessed as growth percentage at 0.01 uM incubated for 48 hrs by sulforhodamine B assay relative to control; format: functional; details: read-out: Activity
RPMI-8226 = assay: Growth inhibition of human RPMI-8226 cells assessed as growth percentage at 0.01 uM incubated for 48 hrs by sulforhodamine B assay relative to control; format: functional; details: read-out: Activity
MDA-MB-231 = assay: Growth inhibition of human MDA-MB-231/ATCC cells assessed as growth percentage at 1 uM incubated for 48 hrs by sulforhodamine B assay relative to control; format: functional; details: read-out: Activity
MDA-MB-435 = assay: Growth inhibition of human MDA-MB-435 cells assessed as growth percentage at 100 uM incubated for 48 hrs by sulforhodamine B assay relative to control; format: functional; details: read-out: Activity
[20] = Cytotoxicity against human HFF-1 cells assessed as cell growth inhibition at 10 uM by MTT assay relative to control; format: cell-based; details: read-out: GI
RXF 393 [21] = assay: Growth inhibition of human RXF 393 cells assessed as growth percentage at 1 uM incubated for 48 hrs by sulforhodamine B assay relative to control; format: functional; details: read-out: Activity
SF-268 [22] = assay: Growth inhibition of human SF-268 cells incubated for 48 hrs by sulforhodamine B assay; format: functional
U-251 [23] = assay: Growth inhibition of human U-251 cells assessed as growth percentage at 100 uM incubated for 48 hrs by sulforhodamine B assay relative to control; format: functional; details: read-out: Activity
SF-295 = assay: Growth inhibition of human SF-295 cells incubated for 48 hrs by sulforhodamine B assay; format: functional

CCCCCCCC(=O)Nc1nc2[nH]c(CN3CCN(Cc4cccc(F)c4)CC3)c(CN3CCN(Cc4cccc(F)c4)CC3)c2c(=O)[nH]1
growth at 0.01 µM (UACC-257 [1]): 89% | growth at 10 µM (UACC-257 [2]): -18.5% | growth at 0.1 µM (HOP-92 [3]): 86% | growth at 10 µM (SK-MEL-2): -66.9% | growth at 0.1 µM (HCT-15): 94% | GI50 (SNB-75 [4]): 1340 nM | LC50 (lethal concentration, 50% cell kill) (SNB-75 [4]): 5280 nM | TGI (SNB-75 [4]): 2660 nM | TGI (NCI-H226; Homo sapiens): 3840 nM | GI50 (NCI-H226; Homo sapiens, NCI-H226, 48 h): 1840 nM | CC50 (NCI-H226; Homo sapiens, NCI-H226, 48 h): 8040 nM | TGI (HOP-92 [5]; 48 h): 2420 nM and 820 nM | GI50 (HOP-92 [5]; Homo sapiens, HOP-92): 1140 nM | LC50 (HOP-92 [5]; Homo sapiens, HOP-92): 5140 nM | GI50 (COLO 205 [6]): 1400 nM | TGI (COLO 205 [6]): 2820 nM | CC50 (COLO 205 [6]; read-out: LC50 (the source's name)): 5680 nM | growth at 1 µM (CCRF-CEM [7]): -17% | growth at 1 µM (HOP-92 [8]): 59% | growth at 0.01 µM (CAKI-1): 92% | growth at 10 µM (U-251 [9]): -92.7% | growth at 1 µM (BT-549): 63% | growth at 0.01 µM (COLO 205 [10]): 92% | growth at 0.1 µM (CCRF-CEM [11]): 94% | growth at 1 µM (HOP-62): 75% | growth at 0.01 µM (OVCAR-4): 98% | growth at 100 µM (SK-MEL-5): -81% | growth at 100 µM (SR): -12% | growth at 0.01 µM (SF-268 [12]): 99% | growth at 1 µM (K562): -31% | growth at 100 µM (HOP-92 [13]): -95% | GI50 (RXF 393 [14]): 510 nM | LC50 (concentration killing 50% of cells) (RXF 393 [14]): 4450 nM | TGI (RXF 393 [14]): 1740 nM | growth at 100 µM (CCRF-CEM [15]): 8% | growth at 1 µM (SNB-75 [16]): 71% | growth at 1 µM (COLO 205 [17]): 74% | growth at 0.01 µM (SK-OV-3): 108% | growth at 10 µM (TK-10): -65% | growth at 0.1 µM (SN12C): 98% | growth at 0.01 µM (HOP-92 [18]): 90% | growth at 0.01 µM (RXF 393 [19]): 100% | growth at 0.01 µM (RPMI-8226): 101% | growth at 1 µM (MDA-MB-231): 33% | growth at 100 µM (MDA-MB-435): -83% | inhibition at 10 µM [20]: 14.1% | growth at 1 µM (RXF 393 [21]): 29% | GI50 (SF-268 [22]): 1260 nM | LC50 (SF-268 [22]): 5730 nM | TGI (SF-268 [22]): 2680 nM | growth at 100 µM (U-251 [23]): -95% | GI50 (SF-295): 1410 nM | LC50 (SF-295): 5790 nM | TGI (SF-295): 2850 nM

Nc1nc2[nH]c(CN3CCN(c4cc(Cl)cc(Cl)c4)CC3)c(CN3CCN(c4cc(Cl)cc(Cl)c4)CC3)c2c(=O)[nH]1
growth at 0.01 µM (UACC-257 [1]): 96% | growth at 10 µM (UACC-257 [2]): 97.6% | growth at 0.1 µM (HOP-92 [3]): 73% | growth at 10 µM (SK-MEL-2): 108% | growth at 0.1 µM (HCT-15): 95% | GI50 (SNB-75 [4]): 1420 nM | TGI (SNB-75 [4]): 2740 nM | GI50 (NCI-H226; 48 h): 1580 nM and 15800 nM | CC50 (NCI-H226; 48 h): > 100000 nM | TGI (NCI-H226; Homo sapiens): 5370 nM | GI50 (HOP-92 [5]; Homo sapiens, HOP-92): 1350 nM | TGI (HOP-92 [5]; Homo sapiens, HOP-92, 48 h): 3540 nM | GI50 (COLO 205 [6]): 1690 nM | TGI (COLO 205 [6]): 3560 nM | growth at 1 µM (CCRF-CEM [7]): 87% | growth at 1 µM (HOP-92 [8]): 65% | growth at 0.01 µM (CAKI-1): 87% | growth at 10 µM (U-251 [9]): 36.6% | growth at 1 µM (BT-549): 85% | growth at 0.01 µM (COLO 205 [10]): 95% | growth at 0.1 µM (CCRF-CEM [11]): 98% | growth at 1 µM (HOP-62): 85% | growth at 0.01 µM (OVCAR-4): 95% | growth at 100 µM (SK-MEL-5): -61% | growth at 100 µM (SR): -30% | growth at 0.01 µM (SF-268 [12]): 102% | growth at 1 µM (K562): 83% | growth at 100 µM (HOP-92 [13]): -72% | GI50 (RXF 393 [14]): 1580 nM | TGI (RXF 393 [14]): 3070 nM | growth at 100 µM (CCRF-CEM [15]): -30% | growth at 1 µM (SNB-75 [16]): 76% | growth at 1 µM (COLO 205 [17]): 85% | growth at 0.01 µM (SK-OV-3): 95% | growth at 10 µM (TK-10): 77.1% | growth at 0.1 µM (SN12C): 99% | growth at 0.01 µM (HOP-92 [18]): 85% | growth at 0.01 µM (RXF 393 [19]): 95% | growth at 0.01 µM (RPMI-8226): 102% | growth at 1 µM (MDA-MB-231): 101% | growth at 100 µM (MDA-MB-435): -80% | inhibition at 10 µM [20]: 15.8% | growth at 1 µM (RXF 393 [21]): 85% | GI50 (SF-268 [22]): 1770 nM | TGI (SF-268 [22]): 3350 nM | growth at 100 µM (U-251 [23]): -50% | GI50 (SF-295): 1820 nM | TGI (SF-295): 3900 nM
